PMC10654507, “A cleavable chimeric peptide with targeting and killing domains enhances LPS neutralization and antibacterial properties against multi-drug resistant E. coli” (Communications Biology, 2023)
Converted amounts (≈) assume the structure as drawn. Residues, ends and D or L forms follow the SMILES beside them.

Tests used:
LPS [1] = test: Mouse survival, preventive treatment before lethal LPS challenge; format: in vivo; design: key to survival of mice, single-animal event: 1 represents a mouse death; 0 represents no death; conditions: for mouse survival at 7 days: 7 μmol/kg i.p. at 0 h, LPS 13.5 mg/kg i.p. at 6 h, five mice/group; for survival of mice, single-animal event: Fig. 7a source data, LPS challenge
Description: A sepsis mouse model established in our laboratory was used to evaluate the prevention effect of peptides. […] The survival rate of mice was recorded for 7 days. The mice injected with saline were used as negative control.

mouse red blood cells = test: Hemolytic activity; format: cell-based
Description: Blood was collected from the eyeballs of specific pathogen-free (SPF) ICR female mice (6-week-old) with an anticoagulant tube and centrifuged for 10 min (4 °C, 1500 rpm). After washing twice with 0.9% physiological saline, red blood cells were diluted to 8% suspension and added into the Eppendorf tube (100 μL); 2-fold peptide solutions dissolved in 0.9% physiological saline (100 μL) were then added into the tube, incubated at 37 °C for 1 h, and centrifugated at 4 °C for 5 min. The supernatant was pipetted into a 96-well plate and the UV absorbance was measured at 540 nm using a microplate reader. 0.1% Triton X-100 and physiological saline were used as positive and negative control, respectively. The hemolysis rate is calculated as follows: Hemolysis (%) = [(Abspeptide-Abssaline) / (Abs0.1% Triton X-100- Abssaline)] × 100[13].

[2] = Serum stability in mouse serum (RP-HPLC); format: in vitro ADME; conditions: 25% mouse serum; for remaining at 0.5 h, 0.5 mM / remaining at 1 h, 0.5 mM / remaining at 2 h, 0.5 mM / remaining at 4 h, 0.5 mM / remaining rate in mouse serum / remaining at 8 h, 0.5 mM: peptide 0.5 mM, mean of three; for remaining at 0.5 h, 0.5 mM / remaining at 1 h, 0.5 mM / remaining at 2 h, 0.5 mM / remaining at 4 h, 0.5 mM / remaining at 8 h, 0.5 mM: read-out: remaining rate in mouse serum; for remaining rate in mouse serum / remaining at 8 h, 0.5 mM: 8 h; for peptide remained intact in mouse serum: range from 2 h to 8 h of incubation
Description: (§1) Serum stability of R7 and its parent-L7 was tested as previously described with minor modifications[46],[53]. Briefly, each peptide was added to the 25% mouse serum to a final concentration of 0.5 mM; 250 µL aliquots of samples were taken at 0, 0.5, 1, 2, 4 and 8 h, and mixed with 20 µL 15% trichloroacetic acid (TCA). The samples were incubated at 4 °C for 15 min and centrifuged for 10 min at 12,000 rpm. The supernatants were analyzed by RP-HPLC or inhibition zone method. Moreover, after incubation in serum for 2 h, R7 was analyzed by matrix assisted laser desorption/ionization-time of flight mass spectrometry (MALDI-TOF MS) and high-performance liquid chromatography-mass spectrometry (HPLC-MS), respectively.

MDR E. coli CVCC195 [3] = test: Lung injury score (H&E histology), E. coli-challenged mice; format: in vivo, mouse; conditions: for lung injury score: 7 μmol/kg i.p. pre-treatment, three mice/group; for Pathological analysis of lung (lung injury score): Fig. 6b source data, peptide + E. coli, mean
Description: Lung injury was analyzed histologically at 12 h or 24 h. a Histopathological images of lung sections after staining with hematoxylin and eosin (H&E). Images are presented at a magnification of 100×. b Pathological analysis of lung. Lung injury involves in inflammation (such as peribronchial, perivascular, intrabronchial, and pulmonary interstitial one), bronchial exudate, and alveolar septal thickening, respectively. The specific degree of lung injury of each mouse is assessed by Score 0 (asymptomatic), Score 1 (mild), Score 2 (moderate), and Score 3 (severe), respectively. c The number of counted infiltrated inflammatory cells within processed lung sections from a. Data represent the mean ± SD of three independent experiments. Different lower-case letters indicate a significant difference between the two groups (p < 0.05).
(§2) Lung tissues were taken at 12 h and 24 h, respectively, washed with PBS, and fixed in 4% paraformaldehyde overnight. After dehydration in different concentrations of ethanol (including 75%, 85%, 90%, and 95%, respectively), the tissues were embedded in paraffin, sliced, and stained with hematoxylin. Observation was performed under a light microscope. The mice only injected with E. coli, LPS or PBS was regard as the negative or blank control.

LPS [4] = test: Lung injury score (H&E histology), LPS-challenged mice; format: in vivo, mouse; conditions: 7 μmol/kg pre-treatment, 24 h (implied by contrast with 12 h)
Description: Fig. 8 Effects of cleavable chimeric peptide R7 on lung injury in mice. […] Lung injury was analyzed histologically at 12 h or 24 h, respectively. a Histopathological images of lung sections after staining with hematoxylin and eosin (H&E). Images are presented at a magnification of 100×. b Pathological analysis of lung. Lung injury involves in inflammation (such as peribronchial, perivascular, intrabronchial, and pulmonary interstitial one), bronchial exudate, and alveolar septal thickening, respectively. The specific degree of lung injury of each mouse is assessed by Score 0 (asymptomatic), Score 1 (mild), Score 2 (moderate), and Score 3 (severe), respectively. c The number of counted infiltrated inflammatory cells within processed lung sections from (a). Data represent the mean ± SD of three independent experiments. Different lower-case letters indicate a significant difference between the two groups (p < 0.05).
as §2

S. aureus CVCC546 = format: cell-based, Staphylococcus aureus; conditions: repeated three times; for MBC: lowest concentration giving 99.9% reduction of the inoculum; for MIC: microtiter broth dilution, 10^5 CFU/mL, 37 °C, 16 ~ 18 h
Description: The minimum inhibitory concentration (MIC) and minimum bactericidal concentration (MBC) of peptides were determined by the microtiter broth dilution method according to Clinical and Laboratory Standards Institute (CLSI) guidelines. […] PBS was used as the negative control. […] The MBC value was calculated as the lowest concentration of peptides resulting in a 99.9% reduction of the original inoculum. All experiments were repeated three times.

MDR E. coli CVCC195 [5] = test: Antibacterial activity after incubation in mouse serum (inhibition zone); format: cell-based, Escherichia coli; conditions: until 8 h of incubation
Description: as §1

[6] = event at day 2, one cell per mouse
[7] = event at day 7, one cell per entry
[8] = concentration 1 μg/ml (as headed), 37 °C, 1 h, absorbance 540 nm, 0.1% Triton X-100 = 100, mean, n = 3
[9] = concentration 2 μg/ml (as headed), 37 °C, 1 h, absorbance 540 nm, mean, n = 3
[10] = concentration 4 μg/ml (as headed), 37 °C, 1 h, absorbance 540 nm, mean, n = 3
[11] = concentration 8 μg/ml (as headed), 37 °C, 1 h, absorbance 540 nm, mean, n = 3
[12] = concentration 16 μg/ml (as headed), 37 °C, 1 h, absorbance 540 nm, mean, n = 3
[13] = concentration 32 μg/ml (as headed), 37 °C, 1 h, absorbance 540 nm, mean, n = 3
[14] = concentration 64 μg/ml (as headed), 37 °C, 1 h, absorbance 540 nm, mean, n = 3
[15] = concentration 128 μg/ml (as headed), 37 °C, 1 h, absorbance 540 nm, mean, n = 3

Structure (SMILES) | mouse survival at 7 days (LPS [1]) | survival of mice, single-animal event (LPS [1]; [6]) | survival of mice, single-animal event (LPS [1]; [7]) | Hemolysis (mouse red blood cells; [8]) | Hemolysis (mouse red blood cells; [9]) | Hemolysis (mouse red blood cells; [10]) | Hemolysis (mouse red blood cells; [11]) | Hemolysis (mouse red blood cells; [12]) | Hemolysis (mouse red blood cells; [13]) | Hemolysis (mouse red blood cells; [14]) | Hemolysis (mouse red blood cells; [15]) | Hemolysis (mouse red blood cells; low concentration (0 ~ 32 μM)) | remaining at 0.5 h, 0.5 mM [2] | remaining at 1 h, 0.5 mM [2] | remaining at 2 h, 0.5 mM [2] | remaining at 4 h, 0.5 mM [2] | remaining rate in mouse serum [2] | remaining at 8 h, 0.5 mM [2] | peptide remained intact in mouse serum [2] | lung injury score (MDR E. coli CVCC195 [3]; 12 h after E. coli infection) | further results
CSCC[C@H](NC(=O)[C@H](CCCNC(=N)N)NC(=O)[C@H](Cc1c[nH]c2ccccc12)NC(=O)[C@H](C)NC(=O)[C@H](Cc1c[nH]c2ccccc12)NC(=O)[C@H](CCCNC(=N)N)NC(=O)[C@H](Cc1c[nH]c2ccccc12)NC(=O)[C@H](C)NC(=O)[C@H](CCCCN)NC(=O)[C@@H](N)Cc1ccccc1)C(=O)N[C@@H](CCCCN)C(=O)N[C@@H](CCCCN)C(=O)N[C@@H](CC(C)C)C(=O)N[C@@H](C)C(=O)N[C@@H](C)C(=O)N1CCC[C@H]1C(=O)N[C@@H](CO)C(=O)O [L7] (H-FKAWRWAWRMKKLAAPS-OH) | 40% | 1 | 0 | -0.1237% | 0.165% | -0.1856% | -0.6393% | 0.04126% | -0.3506% | -0.6805% | -1.031% | no hemolysis | 74.5% | 62.7% | 25.3% | 6.01% | completely undetectable | 0.829% | 25.3 ~ 0.8% | 7.7 points | hemolysis against mouse red blood cells (mouse red blood cells; 128 μM): 0%; lung injury score (MDR E. coli CVCC195 [3]; 24 h after E. coli infection): 5.7 points; Pathological analysis of lung (lung injury score) (MDR E. coli CVCC195 [3]; 12 h): 6.667; Pathological analysis of lung (lung injury score) (MDR E. coli CVCC195 [3]; 24 h): 7; lung injury score (LPS [4]): 6.3 points; MBC (S. aureus CVCC546): 36.2 µM (≈ 77.2 µg/mL); MIC (S. aureus CVCC546): 18.1 µM (≈ 38.6 µg/mL)
CSCC[C@H](NC(=O)[C@H](CCCNC(=N)N)NC(=O)[C@H](Cc1c[nH]c2ccccc12)NC(=O)[C@H](C)NC(=O)[C@H](Cc1c[nH]c2ccccc12)NC(=O)[C@H](CCCNC(=N)N)NC(=O)[C@H](Cc1c[nH]c2ccccc12)NC(=O)[C@H](C)NC(=O)[C@H](CCCCN)NC(=O)[C@H](Cc1ccccc1)NC(=O)[C@H](CCCNC(=N)N)NC(=O)[C@H](CCCNC(=N)N)NC(=O)[C@H](CCCCN)NC(=O)[C@H](CCCNC(=N)N)NC(=O)[C@H](CCCCN)NC(=O)[C@H](Cc1ccccc1)NC(=O)[C@H](Cc1ccccc1)NC(=O)[C@H](CO)NC(=O)[C@H](C)NC(=O)[C@H](CCCNC(=N)N)NC(=O)[C@@H](NC(=O)[C@H](CCCCN)NC(=O)[C@H](Cc1c[nH]c2ccccc12)NC(=O)[C@H](CCCNC(=N)N)NC(=O)CNC(=O)[C@H](CCC(N)=O)NC(=O)[C@@H](NC(=O)[C@@H](N)CCCNC(=N)N)C(C)C)C(C)C)C(=O)N[C@@H](CCCCN)C(=O)N[C@@H](CCCCN)C(=O)N[C@@H](CC(C)C)C(=O)N[C@@H](C)C(=O)N[C@@H](C)C(=O)N1CCC[C@H]1C(=O)N[C@@H](CO)C(=O)O [R7] (H-RVQGRWKVRASFFKRKRRFKAWRWAWRMKKLAAPS-OH) | 100% | 0 | 0 | -0.4331% | -0.2475% | -0.2475% | -0.1031% | 0.495% | 2.846% | 6.991% | 10.9301% | no hemolysis | 101% | 81.6% | 29.8% | 21.2% | ~ 20% | 21.7% | 29.8 ~ 21.7% | 4.3 points | change of antibacterial activity in mouse serum (MDR E. coli CVCC195 [5]): did not changed; lung injury score (MDR E. coli CVCC195 [3]; 24 h after E. coli infection): 2.0 points; Pathological analysis of lung (lung injury score) (MDR E. coli CVCC195 [3]; 12 h): 2.333; Pathological analysis of lung (lung injury score) (MDR E. coli CVCC195 [3]; 24 h): 2; lung injury score (LPS [4]): 3.0 points; MBC (S. aureus CVCC546): 2.26 µM (≈ 10.1 µg/mL); MIC (S. aureus CVCC546): 2.26 µM (≈ 10.1 µg/mL)
